# The source made the active and inactive calls.
# Experiments:
# [1] = NIH-3T3 fibroblast cytotoxicity, dose response, cytotoxicity control, cell-based, fluorescence, Alamar Blue, secondary assay (AID 2327); type: functional;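 note: NIH-3T3 mouse fibroblasts cultured with fluconazole at 8 µg/mL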
# [2] = fluconazole-exposed Candida albicans growth modulators – fluorescence, retest, confirmation (AID 2467); type: functional, cell-based
# [3] = viability of uninfected HEp-2 cells – cell-based, HTS, cytotoxicity control for RSV inhibitor project, dose response (AID 2410); type: functional; conditions: human respiratory syncytial virus
# [4] = target: Induced myeloid leukemia cell differentiation protein Mcl-1 (Homo sapiens, UniProt Q07820); type: functional
# Sequence of Induced myeloid leukemia cell differentiation protein Mcl-1 (Q07820 whole entry): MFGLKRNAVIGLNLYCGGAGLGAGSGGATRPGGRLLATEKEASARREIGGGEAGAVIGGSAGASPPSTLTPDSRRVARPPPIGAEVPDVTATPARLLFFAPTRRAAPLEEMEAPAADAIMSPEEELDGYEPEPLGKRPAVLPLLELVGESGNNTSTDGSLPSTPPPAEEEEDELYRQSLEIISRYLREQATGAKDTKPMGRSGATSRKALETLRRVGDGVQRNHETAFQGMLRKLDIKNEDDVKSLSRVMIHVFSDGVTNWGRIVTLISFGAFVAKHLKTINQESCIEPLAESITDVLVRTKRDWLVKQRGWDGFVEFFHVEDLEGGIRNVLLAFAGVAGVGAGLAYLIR
# [5] = Trypanosoma cruzi growth suppression in host cells – NIH3T3 host cells, beta-gal luminescence, confirmation (AID 2044); type: functional, cell-based;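 note: intracellular parasites grown in NIH/3T3 mouse fibroblasts as host cells; luminescent beta-galactosidase reporter signal from transgenic T. cruzi replicating inside host cells; inhibitors lower the luminescence signal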
# [6] = NIH3T3 cell viability loss – ATP luminescence, mouse fibroblasts, counter-screen, dose response (AID 2010); type: functional, cell-based;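 note: cells exposed to compound for about 90 hours before reading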
# [7] = viability of PTEN-deleted HCT116 cells – cell-based, HCT116 PTEN knockout, dose response (AID 1047); type: functional;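 note: HCT116 colon tumor cells with PTEN knocked out; cells exposed to compound for 60 hours before readout; potency for loss of cell viability measured by luminescence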
# P388/ADR = experiment: cells; type: functional; conditions: Mus musculus
# SN12K1 = experiment: cells; type: functional; conditions: Homo sapiens
# Cytochrome P450 2C19 = Cytochrome P450 2C19 (Homo sapiens, UniProt P33261); experiment: Cytochrome panel assay with activity outcomes. Panel member name: p450-cyp2c19 Compounds with AC50 equal or less than 10 uM are considered active; type: functional; conditions: read-out: AC50
# Sequence of Cytochrome P450 2C19 (P33261 whole entry): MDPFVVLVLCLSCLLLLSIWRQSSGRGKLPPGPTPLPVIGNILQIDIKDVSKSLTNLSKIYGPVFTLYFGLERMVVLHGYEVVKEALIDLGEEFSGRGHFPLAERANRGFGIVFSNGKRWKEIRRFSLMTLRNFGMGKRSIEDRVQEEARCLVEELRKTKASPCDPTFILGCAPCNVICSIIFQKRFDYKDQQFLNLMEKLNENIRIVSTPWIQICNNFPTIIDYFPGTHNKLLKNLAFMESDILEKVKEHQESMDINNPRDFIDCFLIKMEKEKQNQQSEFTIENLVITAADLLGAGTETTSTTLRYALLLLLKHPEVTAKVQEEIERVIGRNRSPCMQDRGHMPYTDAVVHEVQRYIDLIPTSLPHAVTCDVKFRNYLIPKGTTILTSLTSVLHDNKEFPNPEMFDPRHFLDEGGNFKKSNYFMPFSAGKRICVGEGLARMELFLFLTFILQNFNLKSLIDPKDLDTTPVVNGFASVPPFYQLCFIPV
# Cytochrome P450 1A2 = target: T1, Cytochrome P450 1A2 (Homo sapiens, UniProt P05177);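 note: PubChem cytochrome P450 panel assay, CYP1A2 panel member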
# T1 sequence (P05177 whole entry): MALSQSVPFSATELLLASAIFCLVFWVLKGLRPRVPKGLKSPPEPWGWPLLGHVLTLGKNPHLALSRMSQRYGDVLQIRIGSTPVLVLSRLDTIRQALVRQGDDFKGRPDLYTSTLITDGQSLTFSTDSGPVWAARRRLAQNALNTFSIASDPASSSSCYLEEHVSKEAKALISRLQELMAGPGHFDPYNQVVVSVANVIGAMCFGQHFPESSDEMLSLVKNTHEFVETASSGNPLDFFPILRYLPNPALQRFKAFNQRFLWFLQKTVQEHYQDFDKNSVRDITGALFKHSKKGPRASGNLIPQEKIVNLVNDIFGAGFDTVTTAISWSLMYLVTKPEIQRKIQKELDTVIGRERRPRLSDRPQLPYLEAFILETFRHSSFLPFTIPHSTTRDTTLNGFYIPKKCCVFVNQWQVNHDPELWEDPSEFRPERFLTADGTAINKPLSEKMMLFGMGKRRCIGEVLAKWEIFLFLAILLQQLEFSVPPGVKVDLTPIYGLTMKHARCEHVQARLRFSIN
# Cytochrome P450 3A4 = Cytochrome P450 3A4 (Homo sapiens, UniProt P08684);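 note: CYP3A4 tested as one member of a cytochrome P450 panel screen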
# Sequence of Cytochrome P450 3A4 (P08684 whole entry): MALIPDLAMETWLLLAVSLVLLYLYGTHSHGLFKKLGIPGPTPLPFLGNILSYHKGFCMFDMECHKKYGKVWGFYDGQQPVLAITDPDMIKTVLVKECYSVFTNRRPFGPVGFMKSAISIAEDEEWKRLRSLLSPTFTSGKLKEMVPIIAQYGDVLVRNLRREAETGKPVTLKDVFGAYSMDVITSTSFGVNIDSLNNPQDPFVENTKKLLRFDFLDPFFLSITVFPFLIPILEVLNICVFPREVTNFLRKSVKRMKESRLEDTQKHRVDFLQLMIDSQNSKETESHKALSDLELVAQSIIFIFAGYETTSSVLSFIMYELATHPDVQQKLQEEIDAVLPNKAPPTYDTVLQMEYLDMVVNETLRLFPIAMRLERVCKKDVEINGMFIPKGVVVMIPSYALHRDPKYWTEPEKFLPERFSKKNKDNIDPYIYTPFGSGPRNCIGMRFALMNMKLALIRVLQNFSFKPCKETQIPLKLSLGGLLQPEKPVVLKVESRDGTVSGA
Structure (SMILES),EC50 [1],EC50 [2],CC50 [3],other results
Cc1nc2sc(C(c3cccc(F)c3)N3CCCC(C)C3)c(O)n2n1 (configuration not stated),> 150 µM (inactive),1.82 µM (active),–,–
COC(=O)c1ccc(Cn2cnc3c(sc4nc(N5CCOCC5)c5c(c43)CCCC5)c2=O)o1,–,–,> 50 µM (active),–
CC(=O)Oc1ccc(NC(=O)CSc2ccccc2)cc1,–,–,–,IC50 [4]: < 0.4 µM (not active)
COCCOC(=O)C1=C(C)N(Cc2ccccc2)C(=O)NC1c1ccc(OC)cc1 (configuration not stated),–,–,23.2 µM (active),–
O=C(NCc1ccc(F)cc1)c1ccc(CS(=O)(=O)Cc2ccccc2F)o1,> 150 µM (inactive),6.51 µM (active),–,–
O=C(NC1CCCCC1)C(c1ccncc1)N(Cc1ccccc1)C(=O)c1ccc(-c2ccccc2)[nH]1 (configuration not stated),–,–,7.92 µM (active),EC50 [5]: 0.413 µM (active); EC50 [6]: > 60 µM (not active)
COc1cc(NC(=S)N2CCN(S(=O)(=O)c3ccccc3)CC2)cc(OC)c1,> 160 µM (inconclusive),> 38 µM (not active),–,–
O=C(COC(=O)c1c2c(nc3ccccc13)CCCC2)Nc1ccc2c(c1)OCO2,–,–,–,EC50 [7]: 44.5 µM (active)
N#Cc1c(NC(=O)CSC2=NCCS2)sc2c1CCCC2,–,–,22.5 µM (active),–
O=C1NC2(CCC3(CC2)OCCO3)NN1c1ccccc1,> 160 µM (inconclusive),> 38 µM (not active),–,–
CCC(Oc1ccccc1)C(=O)Nc1ncc([N+](=O)[O-])s1 (configuration not stated),> 160 µM (inactive),1.5 µM (active),–,–
O=[N+]([O-])c1ccc(N=Nc2c(O)[nH]c3ccc(F)cc23)cc1,–,–,26.1 µM (active),–
Cc1ccc(-c2nnn(CC(=O)N(Cc3ccco3)C(C(=O)NC(C)(C)C)c3ccncc3)n2)o1 (configuration not stated),> 150 µM (inactive),> 38 µM (not active),–,–
Cc1ccc(S(=O)(=O)N2CCC(Oc3cccc(C(F)(F)F)c3)CC2)cc1,–,–,16.5 µM (active),–
COc1cc(/C=C(\C#N)C(N)=O)cc(Br)c1O,–,–,–,GI50 (P388/ADR): > 100 µM (inactive); GI50 (SN12K1): 95.3 µM (inactive)
CC(C)(C)c1ccc(C2CC2C(=O)N/N=C\c2cc3ccccc3nc2Cl)cc1 (configuration not stated),–,–,20.1 µM (active),AC50 (Cytochrome P450 2C19): 11.2 µM (inconclusive); AC50 (Cytochrome P450 1A2): 28.2 µM (inconclusive); AC50 (Cytochrome P450 3A4): 15.8 µM (inconclusive)
CCCOc1cccc(C(=O)N/N=C/c2coc3ccccc3c2=O)c1,28.2 µM (active),> 38 µM (not active),–,–
Cc1cc(C(=O)N/N=C/c2ccc(O)c([N+](=O)[O-])c2)c(C)n1-c1ccc(F)cc1,–,–,–,IC50 [4]: 3.74 µM (active)
CC(=O)Nc1sc(N/N=C\c2ccc(O)cc2)nc1-c1cccs1,–,–,–,IC50 [4]: 2.4 µM (active)

# — ChEMBL document CHEMBL1201862, “PubChem BioAssay data set” (2004)
